Data as given in patent publication US8940302B2, “Predicting response to a HER inhibitor” (Genentech, Inc., priority 2007, dated 2015).

Assays:
[1] = system: platinum-resistant ovarian cancer, primary peritoneal carcinoma, or fallopian tube carcinoma; test: Randomized trial of gemcitabine + pertuzumab vs gemcitabine + placebo, PFS and OS by qRT-PCR HER3 (Examples 1 and 4); format: in vivo, human
Source text: Patients who had progressed while receiving, or within 6 months of receiving, a platinum-based chemotherapy regimen were eligible for this study. Patients were randomized to receive either gemcitabine in combination with pertuzumab, or gemcitabine in combination with placebo. Patients treated herein included those who had not received a previous salvage regimen treatment for platinum-resistant disease prior to study entry, and those who had received one prior regimen for platinum-resistant disease. Gemcitabine was administered at 1000 mg/m^2 on days 1 and 8 of each 21 day cycle. Gemcitabine was infused first over 30 minutes. Dose reductions were permitted for toxicity. […] Subjects without progressive disease received treatment for up to 17 cycles, or 1 year. Patients had standard gemcitabine dose reduction and held doses as a result of cytopenias. […] Subsequent doses were at the reduced doses and were not increased. If dose reduction or holding a dose was required in more than 4 occasions, or if doses were held for more than 3 weeks, then gemcitabine was discontinued and with the approval of the treating physician and medical monitor, blinded drug was continued until disease progression. If Day 8 gemcitabine doses were held, then the Day 8 dose was omitted and the subsequent treatment was commenced with the next cycle (Day 22 of the previous cycle). Response was assessed at the end of Cycles 2, 4, 6, 8, 12 and 17. Measurable disease was assessed using the Response Evaluation Criteria for Solid Tumors (RECIST), by clinical evaluation and CT scan or equivalent. Response for subjects with evaluable disease was assessed according to changes to CA-125 and clinical and radiologic evidence of disease. Responses were confirmed 4-8 weeks after the initial documentation of response. The following outcome measures were assessed. Progression free survival, as determined by investigator assessment using RECIST or CA-125 changes, following initiation of assigned study treatment of all subjects in each arm. Formalin-fixed, paraffin embedded tissue (FFPET) samples obtained from the patients in this clinical trial were analyzed for EGFR, HER2, HER3, two HER ligands (amphiregulin and betacellulin), and G6PDH (a housekeeping gene) by qRT-PCR. The qRT-PCR assay was performed by TARGOS Molecular Pathology GmbH (Kassel, Germany) using Roche Diagnostic's lab lot kits. The workflow and analysis for performing the qRT-PCR assay on the clinical samples are depicted in FIGS. 27 and 28 herein. The efficacy results were assessed at 7.1 months median follow-up (range 1.3-20.3). There were 101 progression free survival (PFS) events at that time. […] P-values were estimated using stratified Cox model and stratified log-rank test by randomization stratification factors (ECOG PS, number of prior regimens for platinum resistant disease, and disease measurability). Patients with CDDP-R EOC were randomized to G+P or G+placebo. Treatment was given until progression or until unacceptable toxicity. The primary endpoint was PFS. A secondary objective was to evaluate efficacy outcomes in patients with HER2 activation-related expression profiles. A qRT-PCR assay using archival formalin-fixed paraffin-embedded tissue (FFPET), preformed as described above, allowed mRNA expression analysis of HER pathway genes, including HER1, HER2, HER3, amphiregulin, and betacellulin. Outcomes were described by low gene expression (<median) and by high gene expression (≧median).

[2] = system: advanced, refractory, or recurrent ovarian cancer; test: Single arm phase II trial of single agent pertuzumab, PFS and OS by HER3 qRT-PCR (Example 2); format: in vivo, human; conditions: for median survival: single agent pertuzumab, FIG. 25
Experimental: This example concerns a single arm, open label, multicenter phase II clinical trial of ovarian cancer patients. […] Tumor assessments were obtained after 2, 4, 6, 8, 12 and 16 cycles. Response Rate (RR) by RECIST was the primary endpoint. Safety and tolerability were additionally evaluated. Secondary endpoints were TTP, duration of response, duration of survival, pharmacokinetics (PK), and FOSI (cohort 2). qRT-PCR assays were performed on archived formalin fixed paraffin embedded tissue. Assay data is available for 46/117 patients. Here high HER3 expressors were in the greater than and equal to 75th percentile, while low HER3 expressors were in the less than 75th percentile.

[3] = system: incurable, locally advanced, recurrent or metastatic solid tumors; conditions: cited from earlier work
[4] = system: platinum-sensitive recurrent ovarian cancer; test: Randomized open-label Phase II study of pertuzumab with carboplatin-based standard chemotherapy (Example 3); format: in vivo, human; conditions: FIGS. 32-35
Source text: In this randomized, open-label Phase II clinical study, the efficacy and safety of pertuzumab treatment in combination with carboplatin-based standard chemotherapy was investigated in patients with platinum-sensitive recurrent ovarian cancer. The target sample size is 100-500 individuals. Target sample size is 148. Inclusion Criteria: • histologically confirmed ovarian, primary peritoneal, or fallopian tube cancer; • only 1 previous regimen, which must be platinum-based; • platinum-sensitive disease which is defined by a progression-free interval of greater than 6 months after completion of platinum-based chemotherapy. Exclusion Criteria: • previous radiotherapy; • previous treatment with an anti-cancer vaccine or any targeted therapy; • major surgery or traumatic injury within 4 weeks of study; • history or evidence of central nervous system metastases.

[5] = in vivo; cited from earlier work

For `Cl.Nc1ccn([C@@H]2O[C@H](CO)[C@@H](O)C2(F)F)c(=O)n1` (single isomer, unassigned) [G + Placebo, 2′-deoxy-2′,2′-difluorocytidine monohydrochloride (b-isomer)], the “OS (median months)” value ([1]; All Patients (n = 130)) was 13.1 months, the “PFS (median months)” value ([1]; All Patients (n = 130)) was 2.6 months and the “OS (median months)” value ([1]; High HER3 (N = 61), ≧median) was 18.2 months. For the same compound, the “PFS (median months)” value ([1]; High HER3 (N = 61), ≧median) was 5.5 months, the “OS (median months)” value ([1]; Low HER3 (N = 61), <median) was 8.4 months and the “PFS (median months)” value ([1]; Low HER3 (N = 61), <median) was 1.4 months.

With “pertuzumab: humanized HER2 antibody, HER dimerization inhibitor, comprising light and heavy chain amino acid sequences in SEQ ID NOS. 13 and 14” the median survival ([2]; high HER3 expressing patients (greater than and equal to 75th percentile)) was 1.80 years, the median survival ([2]; low HER3 expressing patients (less than 75th percentile)) was 3.31 years and the “outcomes in terms of PFS and OS by HER3 expression” value ([2]; patients with low HER3 expression vs high) was “better outcomes in terms of PFS and OS”. The tolerability ([3]; in vivo, iv) was “generally well tolerated”, the Tumor regression ([3]; patients evaluable for response, pertuzumab IV every 3 weeks) was 3 of 20 and the confirmed partial responses ([3]; pertuzumab IV every 3 weeks) was “Two”. The “pertuzumab activity (PFS) by HER3 expression” value ([1]; qRT-PCR HER3 cutoffs, FIGS. 14-15) was “greatest in patients with HER3 low expressing tumors”, the “pertuzumab activity (PFS) by HER2:HER3 expression” value [4] was “greatest in patients with high HER2:HER3 expressing cancer” and the “pertuzumab activity (PFS) by HER3 expression” value [4] was “greatest in patients with HER3 low expressing cancer”. For the same compound, the mean clearance [5] was 2.69 to 3.74 mL/day/kg and the “mean terminal elimination half-life” value [5] was 15.3 to 27.6 days.
